Experimental data from US8410157B2, “Fungicidal N-cycloalkyl-benzyl-thiocarboxamides or N-cycloalkyl-benzyl-N′-substituted-amidine derivatives” (Bayer Cropscience AG, priority 2007, dated 2013).

Assay: LogP (Table 1)
Type: physicochemical

LogP	Structure (SMILES)
4.06	Cc1ccc(C(F)(F)F)c(CN(C(=S)c2c(C)nn(C)c2F)C2CC2)c1 [Compound 16]
4.94	Cn1nc(C(=S)N(Cc2cc(Cl)ccc2C(F)(F)F)C2CC2)c(C(F)(F)F)n1 [Compound 47]
4.01	Cn1cc(C(=S)N(Cc2cc(Cl)ccc2C(F)(F)F)C2CC2)c(C(F)F)n1 [Compound 36]
4.01	Cc1ccc(C(F)(F)F)c(CN(C(=S)c2cn(C)nc2C(F)F)C2CC2)c1 [Compound 32]
4.01	Cn1cc(C(=S)N(Cc2cc3c(cc2Cl)OCO3)C2CC2)c(C(F)(F)F)c1 [Compound 44]
4.14	Cc1nn(C)c(F)c1C(=S)N(Cc1ccc(C(F)(F)F)cc1Cl)C1CC1 [Compound 8]
3.92	Cc1nn(C)c(F)c1C(=S)N(Cc1cccc(C(F)(F)F)c1Cl)C1CC1 [Compound 3]
4.06	Cn1cc(C(=S)N(Cc2cccc(OCc3ccccc3)c2)C2CC2)c(C(F)F)n1 [Compound 33]
3.46	Cn1cc(C(=S)N(Cc2ccccc2Br)C2CC2)c(C(F)F)n1 [Compound 31]
4.09	Cn1cc(C(=S)N(Cc2ccc(C(F)(F)F)cc2Cl)C2CC2)c(C(F)F)n1 [Compound 35]
4.49	Cn1cc(C(=S)N(Cc2ccccc2[Si](C)(C)C)C2CC2)c(C(F)F)n1 [Compound 37]
3.71	Cn1cc(C(=S)N(Cc2c(Cl)cccc2C(F)(F)F)C2CC2)c(C(F)F)n1 [Compound 34]
3.89	Cn1cc(C(=S)N(Cc2cc(Cl)ccc2Br)C2CC2)c(C(F)F)n1 [Compound 42]
3.96	Cc1nn(C)c(F)c1C(=S)N(Cc1cc(C(F)(F)F)ccc1Cl)C1CC1 [Compound 9]
3.83	Cn1cc(C(=S)N(Cc2c(Cl)cccc2C(F)(F)F)C2CC2)c(Cl)n1 [Compound 50]

Continued, compound first:

Structure (SMILES)	LogP
Cn1cc(C(=S)N(Cc2c(Cl)cccc2Cl)C2CC2)c(I)n1 [Compound 55]	3.71
Cc1nn(C)c(F)c1C(=S)N(Cc1ccccc1C(C)C)C1CC1 [Compound 14]	3.89
Cc1nn(C)c(F)c1C(=S)N(C1CC1)C(C)c1cc(Cl)ccc1Cl (racemic) [Compound 19]	4.04
Cc1nn(C)c(F)c1C(=S)N(Cc1cc(Cl)ccc1Br)C1CC1 [Compound 22]	3.99
Cc1nn(C)c(F)c1C(=S)N(C1CC1)C(C)c1ccc(Cl)cc1Cl (racemic) [Compound 15]	4.14
Cn1cc(C(=S)N(Cc2c(Cl)cc(Cl)cc2Cl)C2CC2)c(Cl)n1 [Compound 52]	4.49
Cc1nn(C)c(F)c1C(=S)N(Cc1ccc(Oc2ccc(Cl)cc2Cl)cc1)C1CC1 [Compound 18]	5
CCc1nn(C)c(F)c1C(=S)N(Cc1ccc(C(F)(F)F)cc1Cl)C1CC1 [Compound 28]	4.54
CCCc1nn(C)cc1C(=S)N(C1CC1)C(C)c1ccc(Cl)cc1Cl (racemic) [Compound 56]	4.39
CCc1nn(C)cc1C(=S)N(Cc1ccccc1I)C1CC1 [Compound 53]	3.53
Cc1nn(C)c(F)c1C(=S)N(Cc1ccc(Oc2ccc(Cl)cc2)cc1)C1CC1 [Compound 1]	4.59
Cc1nn(C)c(F)c1C(=S)N(Cc1ccc(Oc2ccccc2)cc1)C1CC1 [Compound 5]	4.06
Cc1nn(C)c(F)c1C(=S)N(Cc1c(Br)cc(Br)cc1Br)C1CC1 [Compound 13]	4.86
CCCC(c1ccc(Cl)cc1Cl)N(C(=S)c1c(C)nn(C)c1F)C1CC1 (racemic) [Compound 10]	4.97
Cn1nc(C(=S)N(Cc2c(Cl)cccc2C(F)(F)F)C2CC2)c(C(F)(F)F)n1 [Compound 46]	4.67
CCc1cccc(CC)c1CN(C(=S)c1c(C)nn(C)c1F)C1CC1 [Compound 4]	4.39
Cc1nn(C)c(F)c1C(=S)N(Cc1ccccc1[Si](C)(C)C)C1CC1 [Compound 7]	4.64
Cc1nn(C)c(F)c1C(=S)N(Cc1ccccc1C1CCCCC1)C1CC1 [Compound 11]	5.17
Cn1cc(C(=S)N(Cc2c(Cl)cc(OC(F)(F)F)cc2Cl)C2CC2)c(C(F)(F)F)n1 [Compound 45]	4.9
Cc1oc(C(C)(C)C)cc1C(=S)N(Cc1ccccc1I)C1CC1 [Compound 54]	5.95
Cn1nc(C(=S)N(Cc2ccc(Cl)cc2Cl)C2CC2)c(C(F)(F)F)n1 [Compound 48]	4.95
Cc1nn(C)c(F)c1C(=S)N(Cc1c(Cl)cc(Cl)cc1Cl)C1CC1 [Compound 6]	4.42
Cc1nn(C)c(F)c1C(=S)N(Cc1ccccc1I)C1CC1 [Compound 12]	3.68
CC(c1cc(Cl)cc(Cl)c1)N(C(=S)c1cn(C)nc1Cl)C1CC1 (racemic) [Compound 49]	4.49
Cn1cc(C(=S)N(Cc2ccccc2I)C2CC2)c(Cl)n1 [Compound 51]	3.73
Cc1nn(C)c(F)c1C(=S)N(Cc1ccc(-c2ccc(F)c(Cl)c2)cc1F)C1CC1 [Compound 2]	4.73
Cc1nn(C)c(F)c1C(=S)N(C1CC1)C(C)c1cccc(OCc2ccccc2)c1 (racemic) [Compound 17]	4.36
